Data reported in PMC9184463, “Structural basis of ligand binding modes of human EAAT2” (Nature Communications, 2022).
Where “and” joins values, the source holds several entries; their conditions need not be identical. Identical values can stand only once.

Assays:
[1] = target: T1, wild-type hEAAT2 (Homo sapiens, UniProt P43004); assay: whole-cell patch-clamp of hEAAT2-associated anion current, wild-type hEAAT2 in HEK293T cells; format: cell-based; details: for WAY-213613-inhibited current, normalized (MEAN): WT
T1 construct: Strep Tag II (N); superfolder GFP (sfGFP) (N); expressed in transfected cells; host or cells: HEK293T
T1 sequence (P43004 whole entry, the tested form may be a part): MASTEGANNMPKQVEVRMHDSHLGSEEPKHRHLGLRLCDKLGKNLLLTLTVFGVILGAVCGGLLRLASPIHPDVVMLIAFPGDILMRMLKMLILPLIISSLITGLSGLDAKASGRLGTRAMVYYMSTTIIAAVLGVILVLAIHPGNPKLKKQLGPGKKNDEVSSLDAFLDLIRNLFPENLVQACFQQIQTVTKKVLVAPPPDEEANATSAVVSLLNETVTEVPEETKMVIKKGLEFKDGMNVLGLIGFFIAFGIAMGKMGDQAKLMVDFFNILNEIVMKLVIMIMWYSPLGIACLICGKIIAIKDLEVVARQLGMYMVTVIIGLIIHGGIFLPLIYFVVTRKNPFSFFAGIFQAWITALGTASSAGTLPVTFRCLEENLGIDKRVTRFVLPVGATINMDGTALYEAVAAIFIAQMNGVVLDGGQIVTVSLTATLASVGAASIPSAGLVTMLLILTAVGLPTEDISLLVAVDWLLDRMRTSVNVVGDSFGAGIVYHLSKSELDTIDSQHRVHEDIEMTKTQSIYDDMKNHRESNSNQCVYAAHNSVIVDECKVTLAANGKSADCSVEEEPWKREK
Protocol: (§1) Human embryonic kidney 293T (HEK293T) cells were cultured in Dulbecco’s Modified Eagle Medium (DMEM, Gibco) media supplemented with 15% (v/v) fetal bovine serum (FBS, PAN-Biotech) at 37 °C with 5% CO2. HEK293T cells were grown in the culture dishes (d = 3.5 cm) (Thermo Fisher Scientific) for 24 h and then 1 μg hEAAT2 wild-type and mutant plasmids for per dishes were used to transiently transfect HEK293T using 0.7 μg Lipofectamine 2000 Reagent (Thermo Fisher Scientific). Cells were analyzed using electrophysiological experiments between 24 and 40 h after transfection at room temperature (21–25 °C).
(§2) Electrophysiological experiments were performed as described previously with a minor modification. External buffer contained 140 mM NaCl, 2 mM MgCl2, 2 mM CaCl2, and 10 mM HEPES (pH = 7.4 with NaOH and osmolarity of ∼310 mosmol L^−1) and while internal pipette solution comprised of 130 mM NaSCN, 2 mM MgCl2, 10 mM EGTA, 10 mM HEPES (pH = 7.4 with NaOH and osmolarity of ∼310 mosmol L^−1) and 10 mM glutamate. 50 mM WAY-213613 stock solutions were prepared in dimethyl sulfoxide (DMSO), followed by dilutions to working concentrations with the above-mentioned external buffer. […] Whole cell patch-clamp experiment recordings were made from isolated GFP-positive HEK293T cells (hEAAT2 wild type and mutants). In all, 3–6 MΩ was used to fire a polished pipette (Sutter Instrument). […] Cells were immersed in the above-mentioned external buffer supplemented with a specified concentration of glutamate or WAY-213613. Glutamate-induced anion current, Na^+-dependent anion leak current and glutamate transport current or WAY-213613 inhibited anion leak currents were recorded using an EPC-10 amplifier (HEKA Electronic) at a 20 kHz sample rate with low pass filter at 5 kHz. All experiments were executed at 0 mV. After the cell current was stabilized, glutamate or WAY-213613 was sustained at the indicated concentrations from external dosing for at least 6 s. Subsequently, the cell was washed away with external buffer to start a new round of applications or end the experiment. The plateau currents were used for the following calculations. For analysis, the data was acquired by PatchMaster program (HEKA Electronic) at 5 s after recording. Nonlinear dose–response relationships were fitted into a Michaelis–Menten-like equation shown as below to obtain the apparent Km and Ki values in the presence of glutamate or WAY-213613.1 I/Imax=Km/i/C+Km/i In this equation, I represent the current at different glutamate or inhibitor concentrations, and Imax represents the maximal current at the saturating concentration of glutamate or inhibitor. [C] represents the concentration of glutamate or inhibitor. Km/i represents the apparent constant.

[2] = target: T2, hEAAT2 mutant R478A (Homo sapiens, UniProt P43004, R478A); assay: whole-cell patch-clamp, hEAAT2 mutant R478A in HEK293T cells; format: cell-based; details: 0 mV; for WAY-213613-inhibited current, normalized (MEAN): R478A
T2 construct: Strep Tag II (N); superfolder GFP (sfGFP) (N); expressed in transfected cells; host or cells: HEK293T
T2 sequence (P43004 whole entry R478A): as the sequence (P43004 whole entry, the tested form may be a part) above, with R478A counted along it
Protocol: as §1, §2

[3] = target: T3, hEAAT2 mutant S441G (Homo sapiens, UniProt P43004, S441G); assay: whole-cell patch-clamp, hEAAT2 mutant S441G in HEK293T cells; format: cell-based; details: 0 mV; for WAY-213613-inhibited current, normalized (MEAN): S441G
T3 construct: Strep Tag II (N); superfolder GFP (sfGFP) (N); expressed in transfected cells; host or cells: HEK293T
T3 sequence (P43004 whole entry S441G): as the sequence (P43004 whole entry, the tested form may be a part) above, with S441G counted along it
Protocol: as §1, §2

[4] = target: T4, hEAAT2 mutant I464V (Homo sapiens, UniProt P43004, I464V); assay: whole-cell patch-clamp, hEAAT2 mutant I464V in HEK293T cells; format: cell-based; details: 0 mV; for WAY-213613-inhibited current, normalized (MEAN): I464V
T4 construct: Strep Tag II (N); superfolder GFP (sfGFP) (N); expressed in transfected cells; host or cells: HEK293T
T4 sequence (P43004 whole entry I464V): as the sequence (P43004 whole entry, the tested form may be a part) above, with I464V counted along it
Protocol: as §1, §2

[5] = target: T5, hEAAT2 mutant L467I (Homo sapiens, UniProt P43004, L467I); assay: whole-cell patch-clamp, hEAAT2 mutant L467I in HEK293T cells; format: cell-based; details: 0 mV; for WAY-213613-inhibited current, normalized (MEAN): L467I
T5 construct: Strep Tag II (N); superfolder GFP (sfGFP) (N); expressed in transfected cells; host or cells: HEK293T
T5 sequence (P43004 whole entry L467I): as the sequence (P43004 whole entry, the tested form may be a part) above, with L467I counted along it
Protocol: as §1, §2

[6] = target: T6, hEAAT2 mutant V468I (Homo sapiens, UniProt P43004, V468I); assay: whole-cell patch-clamp, hEAAT2 mutant V468I in HEK293T cells; format: cell-based; details: 0 mV; for WAY-213613-inhibited current, normalized (MEAN): V468I
T6 construct: Strep Tag II (N); superfolder GFP (sfGFP) (N); expressed in transfected cells; host or cells: HEK293T
T6 sequence (P43004 whole entry V468I): as the sequence (P43004 whole entry, the tested form may be a part) above, with V468I counted along it
Protocol: as §1, §2

[7] = test system: hEAAT2; details: cited from earlier work
[8] = test system: hEAAT1; details: cited from earlier work
[9] = test system: hEAAT3; details: cited from earlier work
[10] = test system: ionotropic and metabotropic glutamate receptors; details: sentence of earlier manuscript version quoted by reviewer; no reference given; cited from earlier work
[11] = 0.03 μM WAY-213613, normalized to current at 30 μM
[12] = 0.1 μM WAY-213613, normalized to current at 30 μM
[13] = 0.3 μM WAY-213613, normalized to current at 30 μM
[14] = 1 μM WAY-213613, normalized to current at 30 μM
[15] = 3 μM WAY-213613, normalized to current at 30 μM
[16] = 10 μM WAY-213613, normalized to current at 30 μM
[17] = 30 μM WAY-213613, normalization reference

- WAY-213613-inhibited current, normalized (MEAN) ([1]; 0.01 μM WAY-213613, 0 mV, normalized to current at 30 μM WAY-213613): 0.1531
- WAY-213613-inhibited current, normalized (MEAN) ([1]; 0.03 μM WAY-213613, 0 mV, normalized to current at 30 μM WAY-213613): 0.3093
- WAY-213613-inhibited current, normalized (MEAN) ([1]; 0.1 μM WAY-213613, 0 mV, normalized to current at 30 μM WAY-213613): 0.5406
- WAY-213613-inhibited current, normalized (MEAN) ([1]; 0.3 μM WAY-213613, 0 mV, normalized to current at 30 μM WAY-213613): 0.7864
- WAY-213613-inhibited current, normalized (MEAN) ([1]; 1 μM WAY-213613, 0 mV, normalized to current at 30 μM WAY-213613): 0.9254
- WAY-213613-inhibited current, normalized (MEAN) ([1]; 3 μM WAY-213613, 0 mV, normalized to current at 30 μM WAY-213613): 0.9686
- WAY-213613-inhibited current, normalized (MEAN) ([1]; 30 μM WAY-213613, 0 mV, normalization reference): 1
- effect of inhibitor on anion leak conductance ([1]; wild-type hEAAT2): block the anion leak conductance
- Ki ([1]; wild-type hEAAT2, HEK293T, 0 mV, Michaelis-Menten-like fit, read-out: apparent Ki (inhibition of anion leak current)): 70 ± 30 nM
- WAY-213613-inhibited current, normalized (MEAN) ([2]; 0.3 μM WAY-213613, normalized to current at 100 μM): 0.173
- WAY-213613-inhibited current, normalized (MEAN) ([2]; 1 μM WAY-213613, normalized to current at 100 μM): 0.3915
- WAY-213613-inhibited current, normalized (MEAN) ([2]; 3 μM WAY-213613, normalized to current at 100 μM): 0.5586
- WAY-213613-inhibited current, normalized (MEAN) ([2]; 10 μM WAY-213613, normalized to current at 100 μM): 0.7927
- WAY-213613-inhibited current, normalized (MEAN) ([2]; 30 μM WAY-213613, normalized to current at 100 μM): 0.9136
- WAY-213613-inhibited current, normalized (MEAN) ([2]; 100 μM WAY-213613, normalization reference): 1
- Ki ([2]; R478A mutant, read-out: apparent Ki): 1680 nM
- WAY-213613-inhibited current, normalized (MEAN) [3, 11]: 0.08476
- WAY-213613-inhibited current, normalized (MEAN) [3, 12]: 0.2697
- WAY-213613-inhibited current, normalized (MEAN) [3, 13]: 0.5414
- WAY-213613-inhibited current, normalized (MEAN) [3, 14]: 0.7785
- WAY-213613-inhibited current, normalized (MEAN) [3, 15]: 0.8947
- WAY-213613-inhibited current, normalized (MEAN) [3, 16]: 0.9736
- WAY-213613-inhibited current, normalized (MEAN) [3, 17]: 1
- Ki ([3]; S441G mutant, read-out: apparent Ki): 260 nM
- WAY-213613-inhibited current, normalized (MEAN) [4, 11]: 0.1438
- WAY-213613-inhibited current, normalized (MEAN) [4, 12]: 0.3695
- WAY-213613-inhibited current, normalized (MEAN) [4, 13]: 0.6353
- WAY-213613-inhibited current, normalized (MEAN) [4, 14]: 0.8468
- WAY-213613-inhibited current, normalized (MEAN) [4, 15]: 0.8861
- WAY-213613-inhibited current, normalized (MEAN) [4, 16]: 0.98
- WAY-213613-inhibited current, normalized (MEAN) [4, 17]: 1
- Ki ([4]; I464V mutant, read-out: apparent Ki): ~170 nM and 166 nM
- WAY-213613-inhibited current, normalized (MEAN) [5, 11]: 0.06992
- WAY-213613-inhibited current, normalized (MEAN) [5, 12]: 0.1548
- WAY-213613-inhibited current, normalized (MEAN) [5, 13]: 0.4253
- WAY-213613-inhibited current, normalized (MEAN) [5, 14]: 0.7036
- WAY-213613-inhibited current, normalized (MEAN) [5, 15]: 0.8764
- WAY-213613-inhibited current, normalized (MEAN) [5, 16]: 1.001
- WAY-213613-inhibited current, normalized (MEAN) [5, 17]: 1
- Ki ([5]; L467I mutant, read-out: apparent Ki): ~460 nM and 464 nM
- WAY-213613-inhibited current, normalized (MEAN) [6, 11]: 0.136
- WAY-213613-inhibited current, normalized (MEAN) [6, 12]: 0.3481
- WAY-213613-inhibited current, normalized (MEAN) [6, 13]: 0.6012
- WAY-213613-inhibited current, normalized (MEAN) [6, 14]: 0.8026
- WAY-213613-inhibited current, normalized (MEAN) [6, 15]: 0.923
- WAY-213613-inhibited current, normalized (MEAN) [6, 16]: 0.993
- WAY-213613-inhibited current, normalized (MEAN) [6, 17]: 1
- Ki ([6]; V468I mutant, read-out: apparent Ki): ~200 nM and 196 nM
SMILES: NC(CC(=O)Nc1ccc(Oc2cc(F)c(F)cc2Br)cc1)C(=O)O (stereo not drawn) [WAY-213613]
- IC50 [7]: 85 nM
- IC50 ([8]; hEAAT1): 5000 nM
- selectivity (affinity) for hEAAT2 over hEAAT1 ([8]; hEAAT2 over hEAAT1): 59 fold
- selectivity (affinity) for hEAAT2 over hEAAT3 ([9]; hEAAT2 over hEAAT3): 44 fold
- IC50 ([9]; hEAAT3): 3800 nM
- effect on ionotropic and metabotropic glutamate receptors [10]: no effect
